How the values were obtained:
[1] = Drug level in human RBC assessed as concentration of Lamivudine triphosphate per 10^6 cells; type: ADME, cell-based; conditions: erythrocyte
[2] = Drug level in human RBC assessed as concentration of Lamivudine triphosphate per 10^6 cells after 0.3 hrs; type: ADME, cell-based; conditions: erythrocyte
[3] = tested on: PBMC; assay: Drug level in human PBMC assessed as concentration of Lamivudine triphosphate per 10^6 cells; type: ADME, cell-based
[4] = tested on: PBMC; assay: Drug level in human PBMC assessed as concentration of Lamivudine triphosphate per 10^6 cells after 0.3 hrs; type: ADME, cell-based
[5] = Ratio of drug level in human RBC to human PBMC assessed as concentration of Lamivudine triphosphate; type: ADME; conditions: erythrocytes
[6] = Ratio of drug level in human RBC to human PBMC assessed as concentration of Lamivudine triphosphate after 0.3 hrs; type: ADME; conditions: erythrocytes
[7] = Drug level in human RBC assessed as concentration of tenofovir diphosphate per 10^6 cells after 11.9 hrs; type: ADME, cell-based; conditions: erythrocyte
[8] = Drug level in human RBC assessed as concentration of tenofovir diphosphate per 10^6 cells after 13.3 hrs; type: ADME, cell-based; conditions: erythrocyte
[9] = Drug level in human RBC assessed as concentration of tenofovir diphosphate per 10^6 cells after 0.8 hrs; type: ADME, cell-based; conditions: erythrocyte
[10] = Drug level in human RBC assessed as concentration of tenofovir diphosphate per 10^6 cells after 14.3 hrs; type: ADME, cell-based; conditions: erythrocyte
[11] = Drug level in human RBC assessed as concentration of tenofovir diphosphate per 10^6 cells after 13.5 hrs; type: ADME, cell-based; conditions: erythrocyte
[12] = tested on: PBMC; assay: Drug level in human PBMC assessed as concentration of tenofovir diphosphate per 10^6 cells after 11.9 hrs; type: ADME, cell-based
[13] = tested on: PBMC; assay: Drug level in human PBMC assessed as concentration of tenofovir diphosphate per 10^6 cells after 13.9 hrs; type: ADME, cell-based
[14] = tested on: PBMC; assay: Drug level in human PBMC assessed as concentration of tenofovir diphosphate per 10^6 cells after 0.8 hrs; type: ADME, cell-based
[15] = tested on: PBMC; assay: Drug level in human PBMC assessed as concentration of tenofovir diphosphate per 10^6 cells after 14.3 hrs; type: ADME, cell-based
[16] = Ratio of drug level in human RBC to human PBMC assessed as concentration of Lamivudine triphosphate after 0.8 hrs; type: ADME; conditions: erythrocytes
[17] = Ratio of drug level in human RBC to human PBMC assessed as concentration of Lamivudine triphosphate after 14.3 hrs; type: ADME; conditions: erythrocytes
[18] = Ratio of drug level in human RBC to human PBMC assessed as concentration of lamivudin triphosphate after 13.5 hrs; type: ADME; conditions: erythrocytes
[19] = tested on: PBMC; assay: Drug level in non-lysed human PBMC assessed as concentration of tenofovir diphosphate after 2 hrs; type: ADME, cell-based
[20] = tested on: PBMC; assay: Drug level in non-lysed human PBMC assessed as concentration of tenofovir diphosphate after 9.5 hrs; type: ADME, cell-based
[21] = tested on: PBMC; assay: Drug level in RBC lysed human PBMC assessed as concentration of tenofovir diphosphate after 2 hrs; type: ADME, cell-based
[22] = tested on: PBMC; assay: Drug level in RBC lysed human PBMC assessed as concentration of tenofovir diphosphate after 9.5 hrs; type: ADME, cell-based
[23] = tested on: PBMC; assay: Ratio of drug level in non-lysed human PBMC to RBC lysed human PBMC assessed as concentration of tenofovir diphosphate after 2 hrs; type: ADME, cell-based
[24] = tested on: PBMC; assay: Ratio of drug level in non-lysed human PBMC to RBC lysed human PBMC assessed as concentration of tenofovir diphosphate after 9.5 hrs; type: ADME, cell-based
[25] = tested on: PBMC; assay: Drug level in human PBMC assessed as concentration of tenofovir diphosphate per 10^6 cells after 13.5 hrs; type: ADME, cell-based
[26] = Ratio of drug level in human RBC to human PBMC assessed as concentration of Lamivudine triphosphate after 11.9 hrs; type: ADME; conditions: erythrocytes
[27] = Ratio of drug level in human RBC to human PBMC assessed as concentration of Lamivudine triphosphate after 13.3 hrs; type: ADME; conditions: erythrocytes

Nc1ccn([C@@H]2CS[C@H](CO)O2)c(=O)n1 (single isomer, unassigned) [LAMIVUDINE]
Drug uptake [1]: 0.04 pmol | Drug uptake [2]: 0.09 pmol | Drug uptake [3]: 11.1 pmol | Drug uptake [4]: 10.5 pmol | Ratio [5]: 0.004 | Ratio [6]: 0.009

CC(C)OC(=O)OCOP(=O)(CO[C@H](C)Cn1cnc2c(N)ncnc21)OCOC(=O)OC(C)C.O=C(O)/C=C/C(=O)O [TENOFOVIR DISOPROXIL FUMARATE]
Drug uptake [7]: 143 fmol | Drug uptake [8]: 165 fmol | Drug uptake [9]: 443 fmol | Drug uptake [10]: 73.3 fmol | Drug uptake [11]: 245 fmol | Drug uptake [12]: 131 fmol | Drug uptake [13]: 148 fmol | Drug uptake [14]: 226 fmol | Drug uptake [15]: 95.5 fmol | Ratio [16]: 2 | Ratio [17]: 0.8 | Ratio [18]: 1.2 | Drug uptake [19]: 302.6 fmol | Drug uptake [20]: 1287 fmol | Drug uptake [21]: 376.6 fmol | Drug uptake [22]: 182.5 fmol | Ratio [23]: 0.8 | Ratio [24]: 7.05 | Drug uptake [25]: 202 fmol | Ratio [26]: 1.1 | Ratio [27]: 1.1
